Laboratory results: patent US20220409581A1, “METHODS AND COMPOSITIONS FOR TREATMENT OF SOLID TUMORS USING F16 ISOINDOLE SMALL MOLECULES” (Nova Southeastern University, priority 2019, published 2022)
“Also recorded” adds a separate entry of the source.

Assays:
[1] = test system: U87MG derived xenograft tumor; format: in vivo
Procedure: Lauderdale, Fla. Animals were subcutaneously injected into the right flank of each mouse, with 4×10^6 of U87MG glioblastoma cancer cells suspended in 100 μL of PBS mixed with Matrigel (BD Biosciences). […] The experimental mice were treated once in every 2 days for the period of 16 days. At the end of the treatment, the tumors were isolated and then the tumor length (L) and width (W) were measured to calculate the tumor volume (TV) according to the formula: TV=1/2×(L×W^2). To determine the tumor inhibitory effects of F16 and TMZ treatments, the inhibition ratio (IR) was calculated using the formula: […]
At the end of the treatment, all the animals in the control and experimental groups were sacrificed and tumors were excised and weighed.

[2] = rats and monkeys; cited from earlier work
[3] = test system: U87MG-luc intracranial xenograft; assay: Intracranial glioblastoma xenograft model with bioluminescence imaging
Procedure: For tolerability study, 8-10 weeks old male BALB/c mice weighing approximately 25 g were used (Charles Rivers, US). For intracranial study, 8-10 weeks old female athymic nude (Nu/Nu) mice weighing approximately 25 g were used (Taconic Biosciences, US). All animals were housed in pathogen-free ventilated cages under environmentally controlled conditions of humidity and temperature (22° C.; 12:12 h light-dark cycle) with free access to pathogen-free food and water.
F16 (100 mg/kg) was dissolved in a 10% DMSO+90% KolliphorEL (KP). TMZ (50 mg/kg) was dissolved in 10% DMSO+90% phosphate-buffered saline (PBS). All drugs were prepared fresh before the scheduled injection [21]. The total volume of injection was 100 μL/mouse for all experiments which was administered intraperitoneally.
For intracranial study, the glioblastoma xenograft model was developed using athymic nude (Nu/Nu) mice. Briefly, mice were placed under general anesthesia (intraperitoneal injection of 100 mg/kg Ketamine and 10 mg/kg Xylazine) and were positioned in the stereotaxic device. A median incision of ˜1 cm was made, and a burr hole was drilled into the right striatum of the skull (1.0 mm forward and 2.0 mm lateral to the bregma). Subsequently, U87MG cells expressing the luc reporter gene (2×10^5 cells in 3 μL PBS) was injected using a 10-μl Hamilton syringe at the rate of 1 μL/min at a depth of 3 mm. Once injection was completed, the needle was kept in place for 2 minutes and then slowly removed, and the hole was sealed with a sterile bone wax. The incision was closed, and triple antibiotic ointment was applied. One week after tumor cell transplantation, mice were divided randomly into five groups (n=5 in each group): 1) control treated with DMSO in PBS, 2) control treated with DMSO in KP, 3) treated with F16 (100 mg/kg), 4) treated with temozolomide (50 mg/kg) and 5) treated with F16 (100 mg/kg) and 3 h later treated with temozolomide (50 mg/kg). One more group with no tumor implant was added to the study as a negative control (n=5). The experimental mice were treated twice per week for 3 weeks.
Bioluminescence imaging (BLI) was used to assess and confirm tumor growth in intracranial xenograft. BLI was carried out in vivo using the Bruker Xtreme which is a sensitive optical X-ray machine designed for preclinical in vivo study based on BLI concept. Briefly, mice were injected intraperitoneally with D-luciferin (Sigma) dissolved in saline at a dose of 150 mg/kg body weight. Immediately after the injection, mice were anesthetized by isoflurane and series of bioluminescent images was acquired with 3-minutes acquisition intervals for approximately 20 minutes, by which time, the luciferin had been washed out. The image with the peak BLI intensity was used for quantification in units of photon counts.

U87MG cells [4] = assay: MTT cytotoxicity assay; format: cell-based; details: Homo sapiens, U-87 MG, 24 h, read-out: IC50 (50% reduction of U87MG cell viability)
Procedure: The cell viability was assessed using a 3-(4,5-dimethylthiazol-2-yl)-2, 5-diphenyltetrazolium bromide (MTT) assay (Sigma-Aldrich, St. Louis, Mo., USA), and trypan blue dye exclusion method (TBDE). For the MTT assay, U87MG cells were cultured in a 96 well-plate at a density of 5×10^3 per well and incubated at 37° C. under 5% CO2 for 24 h. Then, the cells were treated with different concentrations of F16 (0.1-100 μM) and TMZ (0.1-500 μM) for 24 h. At the end of treatment, the old medium was aspirated, and 10 μL of MTT (0.5 mg/mL in PBS) was added to each well and the cells were incubated at 37° C. for an additional 3 h. Finally, the MTT solution was removed, and 100 μL of dimethyl sulfoxide (DMSO) was added to each well. The plate was gently rotated on an orbital shaker for 10 min to completely dissolve the precipitation and the absorbance was measured at 570 nm using Microplate Reader (VersaMax, Molecular Devices, Sunnyvale, Calif., USA). For the TBDE method, U87MG cells were cultured in a 24 well-plate at a density of 5×10^4 per well and incubated at 37° C. under 5% CO2 for 48 h. Then, the cells were treated with different concentrations of F16 (0.1-100 μM) and TMZ (10-1000 μM). […] The viable cells were counted with a Bio-Rad TC20™ Automated Cell Counter (Hercules, Calif., USA)

U87MG cells [5] = assay: Trans-well migration assay; format: cell-based, human; details: 24 h; F16 20 μM, TMZ 400 μM
Procedure: The migration ability of U87MG cell was determined using both scratch and trans-well assays. For the scratch assay, monolayer of U87MG cells was grown on 6-well plates close to 80% confluency. Using a sterile 200 μL tip, a single straight line scratch was made in each well. The wells were washed with phosphate-buffered saline (PBS) and refilled with growth medium containing various concentrations of F16 (0.1-20 μM) and TMZ (10-400 μM). The images were captured using Leica microscope at 12 h and 24 h post-scratch. For the trans-well migration assay, 6.5 mm trans-well plates polycarbonate membrane inserts (Corning, N.Y., USA) with 8 μm pore size were used. After an initial equilibrium period, 5×10^4 cells suspended in 100 μL basal medium without FBS were added to the upper compartment of the trans-well inserts and exposed to different concentrations of F16 (0.1-20 μM) and TMZ (10-400 μM). The lower chamber was filled with 600 μL of EMEM medium supplemented with 10% fetal bovine serum. Then, trans-well plates were incubated at 37° C. under 5% CO2 for 24 h to allow for the migration of U87MG cells across the porous membrane. […] Five different fields per well were captured with a Leica microscope (DMI 3000 B; IL, USA) using 10× magnification, and the number of cells that penetrated the membrane was counted using ImageJ software (NIH Image, Bethesda, Md., USA).

U87MG cells [6] = assay: Trypan blue dye exclusion method (TBDE); format: cell-based, human; details: F16 100 μM, TMZ 1000 μM
Procedure: The cell viability was assessed using a 3-(4,5-dimethylthiazol-2-yl)-2, 5-diphenyltetrazolium bromide (MTT) assay (Sigma-Aldrich, St. Louis, Mo., USA), and trypan blue dye exclusion method (TBDE). For the MTT assay, U87MG cells were cultured in a 96 well-plate at a density of 5×10^3 per well and incubated at 37° C. under 5% CO2 for 24 h. Then, the cells were treated with different concentrations of F16 (0.1-100 μM) and TMZ (0.1-500 μM) for 24 h. At the end of treatment, the old medium was aspirated, and 10 μL of MTT (0.5 mg/mL in PBS) was added to each well and the cells were incubated at 37° C. for an additional 3 h. Finally, the MTT solution was removed, and 100 μL of dimethyl sulfoxide (DMSO) was added to each well. The plate was gently rotated on an orbital shaker for 10 min to completely dissolve the precipitation and the absorbance was measured at 570 nm using Microplate Reader (VersaMax, Molecular Devices, Sunnyvale, Calif., USA). For the TBDE method, U87MG cells were cultured in a 24 well-plate at a density of 5×10^4 per well and incubated at 37° C. under 5% CO2 for 48 h. Then, the cells were treated with different concentrations of F16 (0.1-100 μM) and TMZ (10-1000 μM). After 24, 48, and 72 h of treatments, an aliquot (50 μL) of the cell suspension from each treatment was mixed with 1:1 (v/v) volume of 0.4% trypan blue. The viable cells were counted with a Bio-Rad TC20™ Automated Cell Counter (Hercules, Calif., USA)

[7] = Tolerability / toxicity study; details: i.p. twice a week for 4 weeks
Procedure: For tolerability study, 8-10 weeks old male BALB/c mice weighing approximately 25 g were used (Charles Rivers, US). […] All animals were housed in pathogen-free ventilated cages under environmentally controlled conditions of humidity and temperature (22° C.; 12:12 h light-dark cycle) with free access to pathogen-free food and water. All animal care and experiments were performed in accordance with the guidelines and approval of the Institutional Animal Care and Use Committee (IACUC) of Nova Southeastern University (NSU), Ft. Lauderdale, Fla.
TMZ (50 mg/kg) was dissolved in 10% DMSO+90% phosphate-buffered saline (PBS). All drugs were prepared fresh before the scheduled injection [21]. The total volume of injection was 100 μL/mouse for all experiments which was administered intraperitoneally.
For tolerability studies, BALB/c mice were randomly assigned to 4 different treatment groups (FIG. 15: Table 1). At the end of the treatment period, blood samples from all the mice were collected and sent to the Department of Comparative Pathology at the University of Miami (City of Miami, Fla.) to analyze the hematological and biochemical parameters.
Mice injected with KP were used as controls. All drugs were administered as i.p. injections twice a week for 4 weeks. Independent toxicity evaluations, serum biochemistry, post-mortem gross examination, and histopathological examination of major organs were performed at Comparative Pathology Department at the University of Miami, Fla.

[8] = test system: Glioblastoma multiforme (GBM); details: human, in vivo; cited from earlier work
recurrent GBM = details: cited from earlier work

Compound: Cn1nnc2c(C(N)=O)ncn2c1=O [TMZ, Temozolomide, reference compound]
- suppression of tumor growth ([1]; i.p., once every 2 days for 16 days, F16 100 mg/kg, TMZ 50 mg/kg, combination of both): 53%
- signs of toxicity / tolerability ([1]; mouse, in vivo): symptoms of toxicity
- levels of TMZ in the brain as % of the plasma concentration [2]: 30-40%
- body weight ([3]; compared to mice treated with vehicles (PBS/KP)): No significant change
- tumor inhibition ([3]; intracranial xenograft model): 99%
- condition of excised brains ([3]; mouse, in vivo): fragile and damaged
- mice that lived until day 50 post implantation ([3]; mouse, in vivo): 60%
- median survival ([3]; vehicles-PBS 34 days, vehicles-KP 36 days): 47 days
- IC50 (U87MG cells [4]): 430 µM
- U87MG cells trapped in the upper compartment as compared to untreated cells (U87MG cells [5]): About 80%
- maximum percentage of U87MG cells death (U87MG cells [6]; 24 h): 68%
- maximum percentage of U87MG cells death (U87MG cells [6]; 48 h): 95%
- maximum percentage of U87MG cells death (U87MG cells [6]; 72 h): 82%
- ALT level (liver function) [7]: Significant elevation; also recorded: significantly elevating
- BUN levels (kidney function) [7]: No significant changes
- RBC [7]: slight increase
- WBC counts [7]: significant increase
- hematocrit [7]: slight increase
- TMZ treated patients who develop significant toxicity [8]: 15-20%

Compound: Bevacizumab [BVZ]
- overall survival (OS) (recurrent GBM; patients with (recurrent) GBM): no improvement; also recorded: failed to improve
- progression free survival (PFS) (recurrent GBM; recurrent GBM): did improve
